Laboratory results as given in patent publication US20080261870A1, “Use of the Pro-Peptide Domain of Lysyl Oxidase as a Therapeutic Agent” (priority 2004, published 2008).

Key:
lysyl oxidase = molecular target: T1, lysyl oxidase (Mus musculus, UniProt P28301); assay: Lysyl oxidase enzyme activity in PR4 cell culture media (tritiated tropoelastin substrate); format: biochemical
T1 construct: endogenous in cells; conditioned serum-free medium
T1 sequence (P28301 163-411): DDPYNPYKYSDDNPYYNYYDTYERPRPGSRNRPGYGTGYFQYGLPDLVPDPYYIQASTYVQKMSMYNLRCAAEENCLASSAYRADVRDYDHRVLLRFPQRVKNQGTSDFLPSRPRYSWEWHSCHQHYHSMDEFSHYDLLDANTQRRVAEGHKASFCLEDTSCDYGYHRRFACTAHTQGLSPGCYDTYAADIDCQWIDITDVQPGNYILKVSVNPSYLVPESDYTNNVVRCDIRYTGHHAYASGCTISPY
Procedure: (§1) If lysyl oxidase enzyme activity were required for the normal phenotype of PR4 cells, then BAPN would cause re-transformation. Thus, growth curves were generated for PR4 cells in the presence of 0 or 400 μM BAPN.
Lysyl oxidase enzyme activity. PR4 cells were plated in 100 mm cell culture plates and then grown and re-fed every two days as described above in the constant presence of 0, 200 and 400 μM BAPN for seven days until visually confluent. Cells were then re-fed with serum-free medium supplemented with 0.1% bovine serum albumin still in the constant presence or absence of BAPN. After 24 hours conditioned 0.3 ml aliquots of media samples were assayed in quadruplicate using a tritiated recombinant human tropoelastin as substrate as previously described (Bedell-Hogan et al., 1993). Incubations were performed at […] for 90 minutes (Hong et al., 1999) and data were expressed as total cpm released +/−SE per culture.

RS485 cells [1] = assay: Growth curves of RS485 cells (crystal violet staining); format: cell-based; conditions: for decrease of growth rate: linear regression of log of absorbance vs time
Excerpt: Effect of suramin on RS485 cell phenotype. Suramin is a polysulfonated naphthylurea, initially used in the treatment of trypanosomiasis and onchocerciasis (Sullivan et al., 1997). Its anti-cancer activity was later identified, and suramin has been introduced into clinical trials for various forms of cancer (La Rocca et al., 1990(a); La Rocca et al., 1990(b); Song et al., 2001; Small et al., 2000; Garcia-Schurmann et al., 1999). Suramin interrupts autocrine growth factor pathways by inhibiting the binding of growth factors to their receptors (Sullivan et al., 1997; Zanghi et al., 2000; Fukumoto et al., 2000; Mietz et al., 1998; Coffey et al., 1987). Treatment of c-Ha-ras-transformed NIH 3T3 cells (RS485 cell line) with suramin leads to the induction of lysyl oxidase (Palamakumbura et al., 2003). Here we investigated the effects of suramin on the rate of growth and morphology of RS485 cells, as an initial measure of cell phenotype. Cells were plated in 6-well plates and cultured for 24 hours and then grown in the continuous presence of 0, 100, 125, or 150 μM suramin. As control, the growth of phenotypically normal NIH 3T3 cells in the absence of suramin was analyzed at the same time. Cell growth was determined by daily crystal violet staining of replicate wells. RS485 cells grew more rapidly than NIH 3T3 cells, as expected (Chang et al., 1982). […] The growth rate of RS485 cells treated with 150 μM suramin was similar to that of NIH 3T3 cells.
BAPN-mediated inhibition of lysyl oxidase enzyme activity fails to prevent phenotypic reversion induced by suramin. It has generally been assumed, although never directly tested, that lysyl oxidase dependent phenotypic reversion and tumor suppressor activity depends on its enzyme activity. To directly test the role of lysyl oxidase enzyme activity, we measured the effects of the lysyl oxidase inhibitor, BAPN (Tang et al., 1983), on the phenotypic changes in RS485 cells following treatment with 150 μM suramin. We have previously shown that suramin induces lysyl oxidase activity by about 2.5-fold (Palamakumbura et al., 2003). RS485 cell growth was assessed in the absence or presence of either 150 μM suramin or 400 μM BAPN, or a combination of both 150 μM suramin and 400 μM BAPN.
(§2) Growth curves. To study cell growth rates, cells were plated in 6-well plates at a density of 35,000 cells/well and were grown in complete medium containing 10% FBS, as described above. Additions of suramin or β-aminopropionitrile (BAPN), when appropriate, were initiated 24 hours after plating. Media were changed every three days in the continuous presence of suramin or BAPN, as indicated for each experimental design in the Results section. Cell density was determined in triplicate every day by crystal violet staining, as described (Kueng et al., 1989; Gillies et al., 1986). Cells were fixed with 10% formalin in PBS, washed with PBS, and then stained for 30 minutes with 0.1% crystal violet at room temperature with shaking. Unbound dye was then removed by washing with water until washes were colorless. Bound dye was then eluted with 10% acetic acid, and quantitated by measuring the absorbance at 590 nm. For quantitative analyses of growth rates, the logarithmic value of absorbance vs time was plotted±standard deviation and the rates were calculated by linear regression analyses. In addition, data were plotted as total absorbance +/−SE vs time. Experiments were performed three times each with consistent findings.

PR4 cells = assay: Growth curves and morphology of PR4 cells; format: cell-based; conditions: 400 μM BAPN
Procedure: as §1
as §2, with “Experiments were performed three times each with consistent findings.” left out

[2] = test system: ras-transformed fibroblasts; assay: Growth in soft agar of ras-transformed fibroblasts with ectopic lysyl oxidase expression, with BAPN; format: cell-based
Excerpt: It has now been determined that the ability of lysyl oxidase to revert the phenotype of ras-transformed fibroblasts depends substantially on the pro-peptide domain and not on lysyl oxidase enzyme activity. Since diminished lysyl oxidase expression in some way contributes to the transformed phenotype, it had generally been assumed that lysyl oxidase enzyme activity is related to the tumor suppressor activity of lysyl oxidase, and, therefore, that diminished lysyl oxidase activity promotes the transformed phenotype. […] The lack of effect of BAPN on lysyl oxidase-dependent phenotype control is interesting. […] Given that BAPN is an irreversible inhibitor of lysyl oxidase (Tang et al., 1983), it follows that both extracellular and intracellular lysyl oxidase activity are susceptible to inhibition by BAPN.

[3] = test system: transfected RS485 cell clones; assay: Cell cycle analysis of anti-sense lysyl oxidase and empty vector transfected RS485 cell clones; format: cell-based; conditions: 150 μM suramin, 24 hours
Procedure: Inhibition of lysyl oxidase expression reduces phenotypic reversion induced by suramin. […] To determine that the suramin-induced phenotypic changes depend upon lysyl oxidase expression, we generated stable anti-sense lysyl oxidase transfected RS485 cell clones. Nine anti-sense lysyl oxidase transfected clones and six empty vector transfected clones were generated and grown in the presence and absence of 150 μM suramin, and after 24 hours, cells were fixed and subjected to cell cycle analysis. Non-transfected RS485 cells were analyzed as an additional control. Differences in the percentage of cells in G1 and S phase occurred as a function of suramin treatment.
(§3) Cell cycle analysis. RS485, NIH 3T3 and PR4 cells were plated on 100 mm plates and were grown until confluent with 0 or 150 μM suramin. Cells (1.5−2×10^6) were then trypsinized, washed with PBS and fixed by washing with ice-cold 70% ethanol. Cells were stained with propidium iodide (50 μg/ml) in PBS containing 2% FBS and was analyzed by flow cytometry using a FACScan flow cytometry with CELLQUEST acquisition and analysis software (Becton Dickinson Co, Bedford, Mass.).
Stable transfection of RS485 cells with an anti-sense lysyl oxidase expression vector. Cells were grown in 100 mm cell culture dishes. At approximately 70% confluence, they were transfected with the anti-sense murine lysyl oxidase expression vector pCLO3 (Giampuzzi et al., 2001) (20 μg DNA/plate) using the calcium phosphate precipitation method (Graham et al., 1973). As a control, RS485 cells were transfected with empty vector (pcDNA3). The transfected cells were selected using G418 (geneticin) at a final concentration of 400 μg/ml in the medium. Colonies were isolated from anti-sense lysyl oxidase and empty vector transfected RS485 cells using cloning cylinders (Southern et al., 1982) and cultured in 400 μg/ml G418. Cells were then plated onto 100 mm plates (250,000 cells/plate) without G418 and treated with 0 or 150 μM suramin. After 24 hours, cells were prepared for cell cycle and Northern analysis as described above.

lysyl oxidase mRNA = assay: Northern blot analysis of lysyl oxidase mRNA in transfected RS485 clones; format: cell-based, mouse; conditions: 150 μM suramin, 24 hours, normalized to 18S rRNA
Procedure: To confirm that lysyl oxidase expression is actually diminished by anti-sense lysyl oxidase transfection, the ability of 150 μM suramin to induce low steady state mRNA levels of lysyl oxidase in clones was assessed after 24 hours of treatment by Northern blot analysis with normalization to 18S rRNA signals. Suramin treatment led to an average 8-fold increase in lysyl oxidase mRNA levels in the six empty vector-transfected clones assayed, consistent with previous studies on non-transfected RS485 cells (Palamakumbura et al., 2003). In contrast, an average 1.8-fold increase in lysyl oxidase mRNA levels occurred in the nine anti-sense lysyl oxidase transfected clones, as shown by Northern blot analysis. Thus, the induction of steady state lysyl oxidase mRNA levels by suramin is inhibited by the anti-sense lysyl oxidase transfection, as expected.
RNA isolation and Northern blot analysis. Total RNA was isolated using the RNeasy —RNA isolation kit (Qiagen, Valencia, Calif.). Ten μg samples of denatured RNA were electrophoresed on a 1% agarose gel containing […]. Gels were transferred in 10×SSC by capillary blotting overnight to Gene Screen nylon membranes (Perkin Elmer Life Science, Boston, Mass.). […] Autoradiograms were assessed and normalized by densitometric scanning on a Versa Doc Model 3000 Gel Documentation System and Quantity One Software (BioRad, Hercules, Calif.). […]

lysyl oxidase activity = conditions: previously shown (Palamakumbura et al., 2003); cited from earlier work
RS485 cells [4] = assay: Cell cycle analysis (FACS, propidium iodide) of RS485 cells treated with suramin; format: cell-based; conditions: 2 days
Procedure: We next determined the effects of suramin on cell cycle progression of RS485 cell cultures. […] The proportions of cells in G1 and S phases in cultures treated with 150 μM suramin are nearly identical to untreated phenotypically normal NIH 3T3 cells (Table I). Thus, treatment with 150 μM suramin changed the morphology, cell cycle, and growth rate of RS485 cells resulting in a more normal phenotype.
as §3
RS485 cells were grown in the presence of 0, 100, or 150 μM suramin for 2 days. Alternatively, NIH 3T3 cells were grown in the absence of suramin, as control. Cells (1.5−2×10^6) were fixed with 70% ethanol and stained with propidium iodide and analyzed by flow cytometry. Data shown are the averages ±SD of experiments performed three times.

[5] = anti-sense lysyl oxidase transfected clones
[6] = empty vector transfected clones

N#CCCN [BAPN, β-aminopropionitrile]
lysyl oxidase enzyme activity in medium (lysyl oxidase; PR4 cultures in continuous presence of 200 μM BAPN): no lysyl oxidase enzyme activity was detected | lysyl oxidase enzyme activity in medium (lysyl oxidase; PR4 cultures in continuous presence of 400 μM BAPN): no lysyl oxidase enzyme activity was detected | effect on suramin-mediated inhibition of RS485 cell growth (RS485 cells [1]; 150 μM suramin and 400 μM BAPN combined): did not reverse or affect in any detectable way | effect on growth rate of RS485 cells (RS485 cells [1]; 400 μM BAPN): had no effect on the growth rate | effect on growth rate of PR4 cells (PR4 cells): did not affect the growth rate | effect on morphology of PR4 cells (PR4 cells): did not change the morphology | effect on ability of ectopic lysyl oxidase expression to prevent growth in soft agar [2]: failed to block

Cc1ccc(C(=O)Nc2ccc(S(=O)(=O)O)c3cc(S(=O)(=O)O)cc(S(=O)(=O)O)c23)cc1NC(=O)c1cccc(NC(=O)Nc2cccc(C(=O)Nc3cc(C(=O)Nc4ccc(S(=O)(=O)O)c5cc(S(=O)(=O)O)cc(S(=O)(=O)O)c45)ccc3C)c2)c1 [suramin]
decrease in S phase [3, 5]: 6.9% | increase in percentage of cells in G1 phase [3, 5]: 10.6% | decrease of average number of cells in S phase [3, 6]: 13.5% | increase of average number of cells in G1 [3, 6]: 20.8% | average increase in lysyl oxidase mRNA levels (lysyl oxidase mRNA; nine anti-sense lysyl oxidase transfected clones): 1.8 fold | average increase in lysyl oxidase mRNA levels (lysyl oxidase mRNA; six empty vector-transfected clones): 8 fold | induction of lysyl oxidase activity (lysyl oxidase activity): about 2.5 fold | G1 % (RS485 cells [4]; 100 μM suramin): 59.4 ± 1.3% | G2, M % (RS485 cells [4]; 100 μM suramin): 19.1 ± 7.9% | S % (RS485 cells [4]; 100 μM suramin): 21.5 ± 2.4% | G1 % (RS485 cells [4]; 150 μM suramin): 67.4 ± 0.2% | G2, M % (RS485 cells [4]; 150 μM suramin): 13.6 ± 1.9% | S % (RS485 cells [4]; 150 μM suramin): 19.0 ± 1.7% | decrease of growth rate (RS485 cells [1]; 100 μM suramin): 38% | decrease of growth rate (RS485 cells [1]; 125 μM suramin): 49% | morphology of RS485 cells (RS485 cells [1]; 150 μM suramin): flatter and contact inhibited | effect on growth rate of RS485 cells (RS485 cells [1]; 150 μM suramin (BAPN experiment)): decreased the growth rate | decrease of growth rate (RS485 cells [1]; 150 μM suramin): 56%
